Like-named read-outs stand apart in the source and are kept apart here.
Legend:
[1] = tested on: human peripheral blood lymphocytes; test: one-way mixed lymphocyte reaction (3H-thymidine uptake); type: cell-based
Experimental: The effect of varying concentrations of leflunomide product (A771726, Hoechst AG Werk Albert, Wiesbaden, Germany) in combination with varying concentrations of rapamycin (Wyeth-Ayerst Research, Rouses Point, N.Y.) was evaluated in a one-way mixed lymphocyte reaction (MLR) performed according to Kahan et al., Transplantation, 51:232 (1991). Briefly, human peripheral blood lymphocytes (2×10^5 per well) were incubated with an equal number of gamma-irradiated, allogeneic peripheral blood lymphocytes for 5 days in the presence of varying concentrations of leflunomide and rapamycin. The lymphocytes were then incubated for 16 to 20 hours with 1 μCi/well of ^3 H-thymidine. The amount of ^3 H-thymidine uptake was measured, and the percent inhibition of proliferation by each drug or drug combination was calculated. Data from two trials appear below in Tables 4 and 5.

cGvH disease or SLE = settings: mouse, U.S. Pat. No. 4,965,276; cited from earlier work
murine B-cell = settings: in vitro; cited from earlier work
murine T-cell = settings: in vitro; cited from earlier work
[2] = tested on: heterotopic small intestinal transplantation; settings: cited from earlier work
[3] = tested on: rejection of concordant hamster to rat cardiac xenografts; settings: earlier work, cited from earlier work
renal allograft = settings: BN-LEW renal transplant; cited from earlier work
SLE in MRL/lpr mice = settings: at the end of 10 weeks, mice with elevated urine protein; cited from earlier work
[4] = humans; cited from earlier work

SMILES: C/C(O)=C(\C#N)C(=O)Nc1ccc(C(F)(F)F)cc1 [A771726, N-(4-trifluoromethylphenyl)-2-cyano-3-hydroxycrotonamide]
- % Inhibition of Lymphocyte Proliferation ([1]; 12.50 μM Lef, 0.00 nM Rapa, Table 4): 15.19%
- % Inhibition of Lymphocyte Proliferation ([1]; 12.50 μM Lef, 0.00 nM Rapa, Table 5): 21.84%
- % Inhibition of Lymphocyte Proliferation ([1]; 25.00 μM Lef, 0.00 nM Rapa, Table 4): 37.35%
- % Inhibition of Lymphocyte Proliferation ([1]; 25.00 μM Lef, 0.00 nM Rapa, Table 5): 38.40%
- % Inhibition of Lymphocyte Proliferation ([1]; 50.00 μM Lef, 0.00 nM Rapa, Table 4): 56.71%
- % Inhibition of Lymphocyte Proliferation ([1]; 50.00 μM Lef, 0.00 nM Rapa, Table 5): 68.63%
- glomerulonephritis, anti-dsDNA titer, GvH index, T-lymphocyte proliferative ability (cGvH disease or SLE): prevented development of glomerulonephritis, reduced anti-dsDNA titer, decreased the GvH index (a measure of relative spleen enlargement), and improved the diminished proliferative ability of T-lymphocytes
- inhibition of development of cGvH disease or SLE (cGvH disease or SLE): effective in inhibiting the development of cGvH disease or SLE
- inhibition of murine B-cell proliferation (murine B-cell): more potent inhibitor of B-cell proliferation
- inhibition of murine T-cell proliferation (murine T-cell): inhibit murine B-cell and T-cell proliferation
- survival of recipients ([2]; 5 mg/kg/day by gavage for 7 days): 15.0 ± 2.1 days
- survival of recipients ([2]; 5 mg/kg/day by gavage for 14 days): 21.2 ± 1.6 days
- survival of recipients ([2]; 5 mg/kg/day by gavage for 28 days): 33.8 ± 2.4 days

SMILES: O=P1(N(CCCl)CCCl)NCCCO1 (stereo not shown) [Cytoxan]
- control of xenograft rejection ([3]; Cytoxan): can completely control rejection of xenografts
- toxicity of required dose ([3]; Cytoxan): lethally toxic range

SMILES: C=CC[C@@H]1/C=C(\C)C[C@H](C)C[C@H](OC)[C@H]2O[C@@](O)(C(=O)C(=O)N3CCCC[C@H]3C(=O)O[C@H](/C(C)=C/[C@@H]3CC[C@@H](O)[C@H](OC)C3)[C@H](C)[C@@H](O)CC1=O)[C@H](C)C[C@@H]2OC [FK-506]
- effect on xenograft survival ([3]; hamster to rat cardiac xenograft): limited effect on xenograft survival even at lethal doses

SMILES: Cn1cnc([N+](=O)[O-])c1Sc1ncnc2nc[nH]c12 [azathioprine]
- protection (renal allograft): neither azathioprine nor prednisolone offered any protection

SMILES: C[C@]12C=CC(=O)C=C1CC[C@@H]1[C@@H]2[C@@H](O)C[C@@]2(C)[C@H]1CC[C@]2(O)C(=O)CO [prednisolone]
- animals still alive (SLE in MRL/lpr mice): 40%
- protection (renal allograft): neither azathioprine nor prednisolone offered any protection

SMILES: CO[C@H]1C[C@@H]2CC[C@@H](C)[C@@](O)(O2)C(=O)C(=O)N2CCCC[C@H]2C(=O)O[C@H]([C@H](C)C[C@@H]2CC[C@@H](O)[C@H](OC)C2)CC(=O)[C@H](C)/C=C(\C)[C@@H](O)[C@@H](OC)C(=O)[C@H](C)C[C@H](C)/C=C/C=C/C=C/1C [rapamycin]
- % Inhibition of Lymphocyte Proliferation ([1]; 0.010 nM Rapa, 0.00 μM Lef, Table 4): 27.12%
- % Inhibition of Lymphocyte Proliferation ([1]; 0.010 nM Rapa, 0.00 μM Lef, Table 5): 4.78%
- % Inhibition of Lymphocyte Proliferation ([1]; 0.050 nM Rapa, 0.00 μM Lef, Table 4): 38.78%
- % Inhibition of Lymphocyte Proliferation ([1]; 0.050 nM Rapa, 0.00 μM Lef, Table 5): 37.75%
- % Inhibition of Lymphocyte Proliferation ([1]; 0.100 nM Rapa, 0.00 μM Lef, Table 4): 57.42%
- % Inhibition of Lymphocyte Proliferation ([1]; 0.100 nM Rapa, 0.00 μM Lef, Table 5): 51.71%
- % Inhibition of Lymphocyte Proliferation ([1]; 1.00 nM Rapa, 0.00 μM Lef, Table 4): 89.25%
- % Inhibition of Lymphocyte Proliferation ([1]; 1.00 nM Rapa, 0.00 μM Lef, Table 5): 80.83%

SMILES: Nc1ccc(C(F)(F)F)cc1 [trifluoromethyl aniline]
- side effect of accumulation of the metabolite [4]: Heinz-body hemolytic anemia

— patent US5688824A, “Use of leflunomide to prevent or control xenograft rejection” (priority 1996, dated 1997)
